The supplement of paper PMC10307832

The cell lines below were run with Cc1cc([C@@H](C)Nc2ccccc2C(=O)O)c2nc(N3CCOCC3)cc(=O)n2c1 [AZD6482] + NC(=O)Nc1cc(-c2cccc(F)c2)sc1C(=O)N[C@H]1CCCNC1 [AZD7762] (partner 0.2 µM) (assay: relative viability (nuclei count vs DMSO), 5 days (fraction); higher = more cells survive). Conditions: first compound 0.08 µM.
In short: (§1)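 Lung cancer cell lines in 1536-well plates got either a single drug or a fixed anchor-drug dose together with five library-drug doses (not always all listed) in √10 steps, by pin tool, on the day after seeding. Nuclei were counted after 5 days, and relative viability is the treated-to-vehicle ratio of nuclei counts. Values are medians of duplicate plates.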

Cell Line	relative viability
EKVX	0.564
LC-2-ad	0.842
NCI-H1944	0.57
NCI-H1975	0.621
RERF-LC-KJ	0.867
ABC-1	0.825
NCI-H358	0.545
NCI-H650	1.06
PC-3 [JPC-3]	0.872

Same assay, conditions: first compound 0.253 µM

Cell Line	relative viability
NCI-H23	0.223
NCI-H647	0.445
NCI-H1651	0.379
EPLC-272H	0.151
NCI-H1792	0.577
NCI-H1355	0.755
NCI-H3122	0.987
NCI-H1437	1.07
NCI-H1755	0.417
HCC-15	1.4
NCI-H1793	0.361
PC-14	0.302
EKVX	0.666
LC-2-ad	0.774
NCI-H1944	0.522
NCI-H1975	0.631
RERF-LC-KJ	0.893
ABC-1	0.892
NCI-H358	0.487
NCI-H650	0.918
PC-3 [JPC-3]	0.715

Same assay, conditions: first compound 0.8 µM

Cell Line	relative viability
NCI-H23	0.236
NCI-H647	0.495
NCI-H1651	0.456
EPLC-272H	0.298
NCI-H1792	0.427
NCI-H1355	0.745
NCI-H3122	1.05
NCI-H1437	1.16
NCI-H1755	0.453
HCC-15	1.26
NCI-H1793	0.315
PC-14	0.324
EKVX	0.538
LC-2-ad	0.821
NCI-H1944	0.499
NCI-H1975	0.676
ABC-1	0.695
NCI-H358	0.549
NCI-H650	1.12
PC-3 [JPC-3]	0.741

Same assay, conditions: first compound 2.53 µM

Cell Line	relative viability
NCI-H23	0.201
NCI-H647	0.191
NCI-H1651	0.391
EPLC-272H	0.197
NCI-H1792	0.262
NCI-H1355	0.681
NCI-H3122	0.696
NCI-H1437	1.03
NCI-H1755	0.344
HCC-15	1.18
NCI-H1793	0.218
PC-14	0.26
EKVX	0.478
LC-2-ad	0.662
NCI-H1944	0.381
NCI-H1975	0.477
RERF-LC-KJ	0.812
ABC-1	0.772
NCI-H358	0.302
NCI-H650	0.77
PC-3 [JPC-3]	0.367

Same assay, conditions: first compound 8 µM

Cell Line	relative viability
NCI-H23	0.219
NCI-H647	0.235
NCI-H1651	0.379
EPLC-272H	0.207
NCI-H1792	0.322
NCI-H1355	0.65
NCI-H3122	0.777
NCI-H1437	0.836
NCI-H1755	0.311
HCC-15	1.11
NCI-H1793	0.249
PC-14	0.194
EKVX	0.494
LC-2-ad	0.593
NCI-H1944	0.417
NCI-H1975	0.363
RERF-LC-KJ	0.838
ABC-1	0.638
NCI-H358	0.439
NCI-H650	0.619
PC-3 [JPC-3]	0.413

The cell lines below were run with Cc1cc([C@@H](C)Nc2ccccc2C(=O)O)c2nc(N3CCOCC3)cc(=O)n2c1 [AZD6482] + Nc1ncn([C@H]2C[C@H](O)[C@@H](CO)O2)c(=O)n1 [Decitabine] (partner 2 µM) in the same assay as above. Conditions: first compound 0.08 µM.
In short: as §1

Cell Line	relative viability
NCI-H23	0.309
NCI-H647	0.374
NCI-H1651	0.627
EPLC-272H	0.313
NCI-H1792	0.519
NCI-H1355	0.346
NCI-H3122	0.474
NCI-H1437	0.572
NCI-H1755	0.709
HCC-15	0.648
NCI-H1793	0.419
PC-14	0.225
EKVX	0.334
LC-2-ad	0.799
NCI-H1944	0.446
NCI-H1975	0.351
RERF-LC-KJ	0.722
ABC-1	0.902
NCI-H358	0.246
NCI-H650	0.318
PC-3 [JPC-3]	0.775

Same assay, conditions: first compound 0.253 µM

Cell Line	relative viability
NCI-H23	0.288
NCI-H647	0.406
NCI-H1651	0.429
EPLC-272H	0.325
NCI-H1792	0.479
NCI-H1355	0.362
NCI-H3122	0.393
NCI-H1437	0.523
NCI-H1755	0.733
HCC-15	0.614
NCI-H1793	0.429
PC-14	0.174
EKVX	0.278
LC-2-ad	0.71
NCI-H1944	0.37
NCI-H1975	0.392
RERF-LC-KJ	0.78
ABC-1	1.14
NCI-H358	0.218
NCI-H650	0.292
PC-3 [JPC-3]	0.827

Same assay, conditions: first compound 0.8 µM

Cell Line	relative viability
NCI-H23	0.32
NCI-H647	0.302
NCI-H1651	0.572
EPLC-272H	0.321
NCI-H1792	0.549
NCI-H1355	0.363
NCI-H3122	0.389
NCI-H1437	0.607
NCI-H1755	0.749
HCC-15	0.571
NCI-H1793	0.313
PC-14	0.273
EKVX	0.312
LC-2-ad	0.811
NCI-H1944	0.521
NCI-H1975	0.385
RERF-LC-KJ	0.601
ABC-1	0.985
NCI-H358	0.237
NCI-H650	0.378
PC-3 [JPC-3]	0.773

Same assay, conditions: first compound 2.53 µM

Cell Line	relative viability
NCI-H23	0.312
NCI-H647	0.236
NCI-H1651	0.446
EPLC-272H	0.216
NCI-H1792	0.356
NCI-H1355	0.341
NCI-H3122	0.277
NCI-H1437	0.572
NCI-H1755	0.668
HCC-15	0.488
NCI-H1793	0.297
PC-14	0.315
EKVX	0.266
LC-2-ad	0.661
NCI-H1944	0.446
NCI-H1975	0.354
RERF-LC-KJ	0.592
ABC-1	1.26
NCI-H358	0.185
NCI-H650	0.33
PC-3 [JPC-3]	0.714

Same assay, conditions: first compound 8 µM

Cell Line	relative viability
NCI-H23	0.304
NCI-H647	0.361
NCI-H1651	0.482
EPLC-272H	0.341
NCI-H1792	0.476
NCI-H1355	0.35
NCI-H3122	0.298
NCI-H1437	0.407
NCI-H1755	0.6
HCC-15	0.556
NCI-H1793	0.271
PC-14	0.271
EKVX	0.244
LC-2-ad	0.635
NCI-H1944	0.435
NCI-H1975	0.345
RERF-LC-KJ	0.665
ABC-1	0.947
NCI-H358	0.189
NCI-H650	0.317
PC-3 [JPC-3]	0.751
